Laboratory results reported in patent publication US10385070B2, “Chroman-spirocyclic piperidine amides as modulators of ion channels” (VERTEX PHARMACEUTICALS INCORPORATED, priority 2011, dated 2019).

Target: human NaV subtype, like NaV 1.7 (Homo sapiens, UniProt Q15858)
Assay: E-VIPR optical membrane potential assay with electrical stimulation
Assay type: cell-based
Details: active against one or more sodium channels; assay and NaV subtype not specified for Table 3; read-out: IC50 Binned Activity Data
In short: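 HEK cells expressing human NaV (e.g. NaV1.7), loaded with CC2-DMPE/DiSBAC6(3) FRET dyes, compounds 20–35 min at room temperature, 0.625% DMSO, KCl 4.5–20 mM. Electrical stimulation ~9 s at 400 Hz scan; background-subtracted 460/580 nm emission ratios normalized; tetracaine 125 µM as positive control.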

human NaV subtype, like NaV 1.7, sequence (Q15858 whole entry): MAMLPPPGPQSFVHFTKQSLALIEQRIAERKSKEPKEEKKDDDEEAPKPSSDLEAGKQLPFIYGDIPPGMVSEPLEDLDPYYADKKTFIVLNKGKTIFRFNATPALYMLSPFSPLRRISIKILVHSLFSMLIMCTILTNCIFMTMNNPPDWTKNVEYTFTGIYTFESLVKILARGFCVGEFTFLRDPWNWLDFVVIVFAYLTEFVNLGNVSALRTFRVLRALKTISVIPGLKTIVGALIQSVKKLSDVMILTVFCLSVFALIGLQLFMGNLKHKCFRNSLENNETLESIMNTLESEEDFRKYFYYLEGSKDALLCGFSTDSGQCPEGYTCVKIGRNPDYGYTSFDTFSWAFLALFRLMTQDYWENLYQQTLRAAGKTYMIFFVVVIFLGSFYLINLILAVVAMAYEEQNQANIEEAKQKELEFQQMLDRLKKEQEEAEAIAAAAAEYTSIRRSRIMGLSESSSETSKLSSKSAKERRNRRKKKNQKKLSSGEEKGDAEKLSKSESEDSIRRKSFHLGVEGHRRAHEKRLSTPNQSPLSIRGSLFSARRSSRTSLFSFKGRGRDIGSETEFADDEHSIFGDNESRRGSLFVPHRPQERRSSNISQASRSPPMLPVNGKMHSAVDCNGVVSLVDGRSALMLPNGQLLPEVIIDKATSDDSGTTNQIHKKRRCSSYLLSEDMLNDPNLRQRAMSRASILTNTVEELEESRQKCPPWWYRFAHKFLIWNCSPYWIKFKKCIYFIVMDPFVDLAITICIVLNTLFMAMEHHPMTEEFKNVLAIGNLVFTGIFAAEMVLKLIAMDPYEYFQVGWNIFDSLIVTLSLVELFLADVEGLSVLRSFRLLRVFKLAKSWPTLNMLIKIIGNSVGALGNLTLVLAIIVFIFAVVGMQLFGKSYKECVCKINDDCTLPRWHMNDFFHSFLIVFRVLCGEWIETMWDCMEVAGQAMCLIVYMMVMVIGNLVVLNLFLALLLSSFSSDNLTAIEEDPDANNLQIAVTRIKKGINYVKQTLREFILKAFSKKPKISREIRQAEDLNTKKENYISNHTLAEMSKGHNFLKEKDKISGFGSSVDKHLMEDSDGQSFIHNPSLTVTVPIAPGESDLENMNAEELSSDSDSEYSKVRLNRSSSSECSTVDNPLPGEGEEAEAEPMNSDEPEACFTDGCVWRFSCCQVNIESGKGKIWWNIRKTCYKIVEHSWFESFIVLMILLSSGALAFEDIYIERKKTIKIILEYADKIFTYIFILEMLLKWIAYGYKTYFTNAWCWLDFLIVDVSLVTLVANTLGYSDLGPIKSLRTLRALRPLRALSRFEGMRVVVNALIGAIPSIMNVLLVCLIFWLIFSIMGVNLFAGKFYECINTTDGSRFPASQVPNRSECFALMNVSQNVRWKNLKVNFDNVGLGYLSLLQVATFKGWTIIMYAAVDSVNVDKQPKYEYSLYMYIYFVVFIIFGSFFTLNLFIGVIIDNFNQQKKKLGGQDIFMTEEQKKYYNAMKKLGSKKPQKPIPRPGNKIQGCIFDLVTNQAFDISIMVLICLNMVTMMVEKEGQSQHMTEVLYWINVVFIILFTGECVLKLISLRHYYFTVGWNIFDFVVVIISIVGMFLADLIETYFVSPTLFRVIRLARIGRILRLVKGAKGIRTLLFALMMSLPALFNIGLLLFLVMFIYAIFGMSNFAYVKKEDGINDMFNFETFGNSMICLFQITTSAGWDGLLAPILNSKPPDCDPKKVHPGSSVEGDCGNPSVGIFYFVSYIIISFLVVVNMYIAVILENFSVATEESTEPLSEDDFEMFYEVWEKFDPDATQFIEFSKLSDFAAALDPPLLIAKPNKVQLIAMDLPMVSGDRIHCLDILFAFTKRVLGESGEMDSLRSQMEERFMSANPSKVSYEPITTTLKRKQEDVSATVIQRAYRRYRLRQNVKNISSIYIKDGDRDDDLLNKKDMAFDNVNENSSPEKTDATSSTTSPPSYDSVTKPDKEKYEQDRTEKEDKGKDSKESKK

Structure (SMILES) | IC50 [nM]
COc1cc(C(=O)N2CCC3(CCc4ccccc4O3)CC2)ccc1OC(C)C [Compound 162] | 2000 to 5000
COc1cc(C(=O)N2CCC3(CC2)CC(COC(C)C)c2ccccc2O3)ccc1C(C)(C)O (centres unmarked) [Compound 163] | ≤ 2000
CC(C)Oc1ccc(C(=O)N2CCC3(CC2)C[C@@H](OC(C)C)c2cc(F)ccc2O3)cc1C#N [Compound 164] | ≤ 2000
COc1cc(C(=O)N2CCC3(CC2)Oc2ccccc2CC3OC)ccc1OC(C)C (centres unmarked) [Compound 165] | ≤ 2000
COc1cc(C(=O)N2CCC3(CC2)C[C@H](OC(C)C)c2ccccc2O3)ccc1C(C)(C)O [Compound 166] | ≤ 2000
CC(C)Oc1ccc(C(=O)N2CCC3(CC2)C[C@H](OC(C)C)c2ccccc2O3)cc1C#N [Compound 167] | ≤ 2000
COCC1CC2(CCN(C(=O)c3ccc(OC(C)C)c(OC)c3)CC2)Oc2ccccc21 (centres unmarked) [Compound 168] | ≤ 2000
Cc1cc(OC(C)C)ccc1C(=O)N1CCC2(CC1)C[C@@H](OC(C)C)c1ccccc1O2 [Compound 169] | ≤ 2000
COc1cc(O)ccc1C(=O)N1CCC2(CC1)C[C@@H](OC(C)C)c1ccccc1O2 [Compound 170] | ≤ 2000
COc1cc(C(=O)N2CCC3(CC2)C[C@H](OC(C)C)c2ccccc2O3)ccc1OC(C)C [Compound 171] | ≤ 2000
COc1cc(C(=O)N2CCC3(CC2)CC(OC2CCC2)c2ccccc2O3)ccc1OC(C)C (centres unmarked) [Compound 172] | ≤ 2000
CC(C)Oc1ccc(C(=O)N2CCC3(CC2)C[C@@H](OC(C)C)c2cc(F)ccc2O3)cc1CN(C)C [Compound 173] | ≤ 2000
CC(C)O[C@@H]1CC2(CCN(C(=O)c3ccc(NC(C)(C)C)cn3)CC2)Oc2ccc(F)cc21 [Compound 174] | ≤ 2000
CC(C)O[C@@H]1CC2(CCN(C(=O)c3ccc(S(=O)(=O)C(C)C)cn3)CC2)Oc2ccc(F)cc21 [Compound 175] | ≤ 2000
CC(C)O[C@@H]1CC2(CCN(C(=O)c3ccc(N4CC(C)OC(C)C4)cn3)CC2)Oc2ccc(F)cc21 (some centres unmarked) [Compound 176] | ≤ 2000
COc1cc(C(=O)N2CCC3(CC2)CC(OC(C)C)c2cccc(F)c2O3)ccc1OC(C)C (centres unmarked) [Compound 177] | ≤ 2000
CCCNc1ccc(C(=O)N2CCC3(CC2)C[C@@H](OC(C)C)c2cc(F)ccc2O3)nc1 [Compound 178] | ≤ 2000
